Test [1] is described as follows: Customer testimonials on stress and mood with fatty15 (C15:0) supplement. Format: in vivo, human. Conditions: daily oral supplementation 100 mg/day (fatty15); summary of testimonials in the 1st table. As to the method:
An odd-chain saturated fatty acid dietary supplement, containing an encapsulated pure (>98%) free fatty acid C15:0 powder and called fatty15™, is available as a consumer health product. Recommended dosing is a single, 100 mg capsule taken orally once a day. Customers were provided opportunities to share their experience, including through voluntary surveys and customer rating programs.

A further test addresses T1, CB1 (Homo sapiens, UniProt P21554).
T1 construct: purchased DiscoverX/Eurofins SAFETYscan E/IC50 ELECT
Nature of the test: SAFETYscan E/IC50 ELECT functional assay, CB1 receptor agonist mode. It is filed as cell-based. As to conditions: at 20 μM; relative to positive control CP 55940 assigned 100% activity. An excerpt: (§1) This study assessed potential pharmacologic targets of pentadecanoic acid. Specifically, this study examined agonist and antagonist activities of synthetic pentadecanoic acid across 78 assays using SAFETYscan E/IC50 ELECT (DiscoverX/Eurofins, Fremont, California). Briefly, a variety of standardized and optimized functional assays were used to assess pentadecanoic acid's pharmacologic targets, including G protein coupled receptors (ADORA2A, ADRA1A, ADRA2A, ADRB1, ADRB2, CB1, CB2, CCK1, D1, D2S, ETA, H1, H2, M1 M2, M3, OPRD1, OPRK1, OPRM1, 5HTR1A, 5HTR1B, 5HTR2A, 5HTR2B, AVPR1A), kinases (LCK, INSR, VEGFR2, ROCK1), transporters (DAT, NET, SERT), ion channels (GABAA, 5-HT3, CA1.2, HERG, KVLQT1/MINK, NA1.5, NMDAR1/2B, NACHR), nuclear receptors (AR, GR), and non-kinase enzymes (COX1, COX2, ACHE, MAOA, PDE3A, PDE4D2). Ten-point concentration curves for both agonist (EC50) and antagonist (IC50) activity were established for each target. Maximum activity (%) was also determined based on comparisons with internal positive controls, which were assigned 100% activity.

Test [2] is described as follows: 6-week voluntary electronic customer survey on stress and mood after daily fatty15 (C15:0) supplement. Format: in vivo, human. Conditions: 100 mg daily oral (fatty15 capsule), 6 weeks; 135 responders; response of 7 or greater on 1-10 scale = agreement. On the procedure:
An odd-chain saturated fatty acid dietary supplement, containing an encapsulated pure (>98%) free fatty acid C15:0 powder and called fatty15™, was available as a consumer health product. Recommended dosing is a single, 100 mg capsule taken orally once a day.
6-Week Survey. Approximately six weeks following receipt of the C15:0 supplement, fattyl5, customers were provided a voluntary electronic questionnaire to evaluate potential near-term benefits, including the questions: “Overall how much would you agree with the following statement: Since starting fatty15, I have been feeling more calm and/or less stressed.” and “Overall how much would you agree with the following statement: Since starting fatty15, I generally feel happier and/or not as bothered by things that used to upset me.”
Survey responders were asked to select a number between 1 and 10, in which 1=Strongly disagree and 10=Strongly agree. A response of 7 or greater was considered an agreement with the statement. Survey responders were also asked if fatty15 had become a part of their daily health routine.

The next test has as its target T2, CB2 (Homo sapiens, UniProt P34972).
T2 construct: purchased DiscoverX/Eurofins SAFETYscan E/IC50 ELECT
Nature of the test: SAFETYscan E/IC50 ELECT functional assay, CB2 receptor agonist mode. Format: cell-based. Conditions: at 20 μM; relative to positive control CP 55940 assigned 100% activity.
Text: as §1

T1 sequence (P21554 whole entry): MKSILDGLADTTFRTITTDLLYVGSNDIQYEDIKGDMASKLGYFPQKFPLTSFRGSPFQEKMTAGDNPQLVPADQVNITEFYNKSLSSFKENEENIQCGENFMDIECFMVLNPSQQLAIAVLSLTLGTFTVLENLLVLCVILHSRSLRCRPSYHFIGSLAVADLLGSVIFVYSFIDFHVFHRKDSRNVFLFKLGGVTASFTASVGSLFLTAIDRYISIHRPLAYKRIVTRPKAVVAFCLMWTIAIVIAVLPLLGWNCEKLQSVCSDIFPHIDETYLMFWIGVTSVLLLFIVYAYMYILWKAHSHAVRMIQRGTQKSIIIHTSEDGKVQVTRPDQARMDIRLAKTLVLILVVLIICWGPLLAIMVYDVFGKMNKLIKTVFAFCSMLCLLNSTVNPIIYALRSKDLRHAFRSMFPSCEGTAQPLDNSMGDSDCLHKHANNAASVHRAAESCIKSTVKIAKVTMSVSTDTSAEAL
T2 sequence (P34972 whole entry): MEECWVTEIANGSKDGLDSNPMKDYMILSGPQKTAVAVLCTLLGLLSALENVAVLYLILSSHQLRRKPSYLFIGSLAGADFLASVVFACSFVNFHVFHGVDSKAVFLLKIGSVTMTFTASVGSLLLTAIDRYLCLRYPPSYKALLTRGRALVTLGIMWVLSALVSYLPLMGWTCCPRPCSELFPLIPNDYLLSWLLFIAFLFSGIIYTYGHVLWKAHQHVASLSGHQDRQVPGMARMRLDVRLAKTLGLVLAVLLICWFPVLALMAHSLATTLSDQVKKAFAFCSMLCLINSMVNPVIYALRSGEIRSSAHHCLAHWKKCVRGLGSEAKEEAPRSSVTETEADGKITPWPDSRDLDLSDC

For `CCCCCCCCCCCCCCC(=O)O` [pentadecanoic acid], in test [1], the “effect on stress and mood per customer testimonials” value was “can lower stress and calm and enhance mood”. Further, the CB1 agonist activity at CB1 is given as 24.5%. Also, in test [2], the “customers reporting feeling calmer and/or less stressed” value was 41% and the “customers reporting feeling generally happier and/or not as bothered by things that used to upset them” value is listed as 37%. On CB2, this compound came in with a CB2 agonist activity of 18.2%.

The values above are taken from US20230381127A1, “COMPOSITIONS AND METHODS FOR MOOD ENHANCEMENT” (EPITRACKER, INC., priority 2020, published 2023).
